Test results: patent US20160251702A1, “Process and Kit for Predicting Antibiotic Resistance and Susceptibility of Bacteria” (priority 2015, published 2016)
Where two headings read alike, the source gives them in different places.

Key:
Type in all cases: cell-based
E. coli [1] = experiment: Antibiotic resistance of E. coli isolates from the field trial (Group Health Urgent Care); conditions: for overall resistance level: Field trial isolates; for Resistance rate in GH UC E. coli: field trial, Group Health Urgent Care
Description: The disclosed test kit and process was conducted on urinalysis-positive urine samples on-site at the HMO urgent care clinical laboratory. All urine samples obtained at Urgent Care facility were tested by the 7-SNP-based CLT(clonotyping) test and by a standard E. coli culturing test.
In total, 750 urinalysis-positive samples from the HMO urgent care lab were processed in CLT test and standard culturing test.
The E. coli clonotypes identified in the field study (out of 750 samples, see above) were compared to a reference collection of E. coli to (1) compare the clonotypes distribution, (2) compare the overall resistance profile, and (3) use the reference collection to predict if antibiotics can or cannot be allowed for use in each case in the field study (as a Lookup Table). Further, the prediction from (3) was compared to actual resistance of individual isolates and to clinical data regarding the prescription of antibiotics in each case. From this we can see if the implementation of the CLT test would improve the choice of antibacterial therapy.
For clone-based prediction of bacterial resistance of field study isolates we used a 15% resistance as a cutoff for rejection of an antibiotic.

E. coli [2] = experiment: Antibiotic resistance of the HMO reference collection of E. coli (Lookup Table); conditions: Reference set isolates (1227, 2010-2013)
Description: Both septatypes/clonotypes and antimicrobial profiles were identified.
In total, 1227 E. coli isolated from the HMO (Group Health) clinical lab in 2010-2013 were analyzed. All had their clonotype type determined and resistance to antibiotics tested. Septatypes were deduced from CH types (clonotypes). Red indicates resistance >30%. Yellow: more than 15% but less than 30%. Green: less than 15%.

Escherichia coli = experiment: Disk diffusion susceptibility of the reference set of clinical E. coli isolates split by 7-SNP typing; conditions: for prevalence of resistance: total E. coli study population
Description: This example illustrates setting up a reference database consisting of 2,559 random single-patient clinical E. coli isolates of primarily extra-intestinal origin, at eight international clinical microbiology laboratories. […] Conventional MLST (multi-locus sequence typing) was performed either in full using the standard scheme of 7 MLST loci (adk, fumC, gyrB, icd, mdh, purA, and recA) (Wirth et al., 2006. Sex and virulence in Escherichia coli: an evolutionary perspective. Mol, Microbiol, 60:1136-1151.) or as a combination of partial MLST and fumC/fimH typing, as described previously (Tchesnokova et al. 2013. Predictive diagnostics for Escherichia coli infections based on the clonal association of antimicrobial resistance and clinical outcome. J. Clin. Microbiol. 51:2991-2999). Some ST complexes, as identified by the eBURST v3 software, were defined operationally as a single ‘ST’ and were designated based on the ST identified as the cluster's founder (see Table 5) (Feil et al. 2004. eBURST: inferring patterns of evolutionary descent among clusters of related bacterial genotypes from multilocus sequence typing data. J. Bacteriol. 186:1518-1530).
Susceptibility to seven antibiotics was determined using a standardized disk diffusion method according to Clinical and Laboratory Standards Institute guidelines.

E. coli [3] = experiment: CH clonotypes correlated with antibiotic susceptibility profiles of urine E. coli isolates
Excerpt: This example illustrates a high-resolution fumC/fimH (CH) clonotyping scheme for E. coli based on sequence variations within these highly-variable omnipresent genes for fumarase and fimbrial adhesin of E. coli, respectively. We correlated CH clonotypes with antibiotic susceptibility profiles among 1,600 urine E. coli isolates from clinical microbiology laboratories in Seattle (Group Health, UW, Harborview, and Children's Hospitals), Minneapolis (VA Medical Center), and Munster, Germany (University Clinic).
We next determined how knowledge of cumulative clonotype vs. overall (species) antibiogram could reduce potential ‘drug-bug’ mismatches during empirical antibiotic selection. We used the IDSA-recommended 80% susceptibility cutoff level to allow the use of specific antibiotic for each clonotype.

E. coli [4] = system: E. coli
Description: This example illustrates implementation of clonal testing in a healthcare community microbiology laboratory. We assessed the presence of E. coli sub-strains ST131 and ST69 (n=619) E. coli positive cultures. […] The tests were conducted to identify ST69 of ST131 genes specific to each clonotype on bacterial DNA isolated from patient urine specimens using RT-PCR instrumentation.

Row | Compound | overall resistance level (E. coli [1]) | overall resistance level (E. coli [2]) | prevalence of resistance (Escherichia coli) | Total resistant (E. coli [3]; 1,600 urine E. coli isolates) | % Resistant among Allowed (E. coli [3]; isolates of clonotypes allowed for treatment) | % Resistant among Rejected (E. coli [3]; isolates of clonotypes rejected for treatment) | Resistance rate in GH UC E. coli (E. coli [1]) | resistance in words (Escherichia coli; septatype 261 (ST69)) | resistance in words (Escherichia coli; septatype 560 (ST131-H41)) | resistance in words (Escherichia coli; septatype 561 (ST131-H30)) | resistant (E. coli [4]; clonotype ST69) | resistant (E. coli [4]; clonotype ST131) | Resistance (E. coli [4]; study group, n=619 E. coli positive cultures)
1 | CC1(C)S[C@@H]2[C@H](NC(=O)[C@H](N)c3ccccc3)C(=O)N2[C@H]1C(=O)O [Ampicillin, ampicillin] | 55.6 | 44.7 |  |  |  |  |  |  |  |  |  |  | 
2 | Cc1nnc(SCC2=C(C(=O)O)N3C(=O)[C@@H](NC(=O)Cn4cnnn4)[C@H]3SC2)s1 [cefazolin] | 12.2 | 15.5 | 23% | 19.7% | 10.7% | 32.0% |  |  |  |  |  |  | 
3 | CO/N=C(\C(=O)N[C@@H]1C(=O)N2C(C(=O)O)=C(CSc3nc(=O)c(=O)[nH]n3C)CS[C@H]12)c1csc(N)n1 [ceftriaxone] | 4.8 | 3.7 | 9% |  |  |  |  |  |  |  |  |  | 
4 | O=C1CN(/N=C/c2ccc([N+](=O)[O-])o2)C(=O)N1 [nitrofurantoin] | 2.9 | 1.3 | 11% |  |  |  | 2.9% |  |  |  |  |  | 
5 | amoxicillin/clavulanate | 21.2 | 15.4 | 28% |  |  |  | 25.6% |  |  |  |  |  | 
6 | trimethoprim/sulfamethoxazole | 25.8 | 21.4 | 28% |  |  |  | 25.7% | highly susceptible | highly resistant | highly resistant | greater than 40% | greater than 40% | 15%
